Test results: patent publication US20120202690A1, “HERBICIDAL COMPOUNDS” (SYNGENTA LIMITED, priority 2009, published 2012)

Assays:
Assay type in all cases: in vivo
[1] = system: Amaranthus retroflexus (AMARE); experiment: Post-emergence biological efficacy, glasshouse, 500 or 1000 g/ha, evaluated after 13 days (100=total damage to plant; 0=no damage to plant); conditions: Amaranthus retroflexus, 312 h, rate 1,000 g/ha, read-out: Percentage damage caused to weed species, post-emergence, AMARE
Method in brief: (§1)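 Weed seeds were sown in standard soil in pots and the plants treated post-emergence. Afterwards they were grown on in a controlled glasshouse at 24/16° C. day/night with 14 hours light and 65% humidity, and watered twice daily.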

Setaria faberi (SETFA) [2] = experiment: as above; conditions: Setaria faberi, 312 h, rate 1,000 g/ha, read-out: Percentage damage caused to weed species, post-emergence, SETFA
Method in brief: as §1

[3] = system: Echinochloa crusgaffi (ECHCG); experiment: as above; conditions: Echinochloa, 312 h, rate 1,000 g/ha, read-out: Percentage damage caused to weed species, post-emergence, ECHCG
Method in brief: as §1

[4] = system: Ipomoea hederaceae (IPOHE); experiment: as above; conditions: Ipomoea, 312 h, rate 1,000 g/ha, read-out: Percentage damage caused to weed species, post-emergence, IPOHE
Method in brief: as §1

Solanum nigrum (SOLNI) [5] = experiment: as above; conditions: Solanum nigrum, 312 h, rate 1,000 g/ha, read-out: Percentage damage caused to weed species, post-emergence, SOLNI
Method in brief: as §1

[6] = system: Alopecurus myosuroides (ALOMY); experiment: as above; conditions: Alopecurus myosuroides, 312 h, rate 1,000 g/ha, read-out: Percentage damage caused to weed species, post-emergence, ALOMY
Method in brief: as §1

[7] = system: Amaranthus retroflexus (AMARE); experiment: Pre-emergence biological efficacy, glasshouse, 1000 g/ha, evaluated after 13 days (100=total damage to plant; 0=no damage to plant); conditions: Amaranthus retroflexus, 312 h, rate 1,000 g/ha, read-out: Percentage damage caused to weed species, pre-emergence, AMARE
Method in brief: (§2)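 Glasshouse conditions were controlled at 24/16° C. day/night with a 14-hour photoperiod and 65% humidity; pots contained standard soil into which seeds had been sown, and plants were watered twice daily.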

[8] = system: Echinochloa crus-galli (ECHCG); experiment: as above; conditions: Echinochloa crus-galli, 312 h, rate 1,000 g/ha, read-out: Percentage damage caused to weed species, pre-emergence, ECHCG
Method in brief: as §2

Setaria faberi (SETFA) [9] = experiment: as above; conditions: Setaria faberi, 312 h, rate 1,000 g/ha, read-out: Percentage damage caused to weed species, pre-emergence, SETFA
Method in brief: as §2

[10] = system: Ipomoea hederaceae (IPOHE); experiment: as above; conditions: Ipomoea, 312 h, rate 1,000 g/ha, read-out: Percentage damage caused to weed species, pre-emergence, IPOHE
Method in brief: as §2

Solanum nigrum (SOLNI) [11] = experiment: as above; conditions: Solanum nigrum, 312 h, rate 1,000 g/ha, read-out: Percentage damage caused to weed species, pre-emergence, SOLNI
Method in brief: as §2

[12] = system: Alopecurus myosuroides (ALOMY); experiment: as above; conditions: Alopecurus myosuroides, 312 h, rate 1,000 g/ha, read-out: Percentage damage caused to weed species, pre-emergence, ALOMY
Method in brief: as §2

Row | Structure (SMILES) | pest or weed control at 1000 g/ha [1] [%] | pest or weed control at 1000 g/ha (Setaria faberi (SETFA) [2]) [%] | pest or weed control at 1000 g/ha [3] [%] | pest or weed control at 1000 g/ha [4] [%] | pest or weed control at 1000 g/ha (Solanum nigrum (SOLNI) [5]) [%] | pest or weed control at 1000 g/ha [6] [%] | pest or weed control at 1000 g/ha [7] [%] | pest or weed control at 1000 g/ha [8] [%] | pest or weed control at 1000 g/ha (Setaria faberi (SETFA) [9]) [%] | pest or weed control at 1000 g/ha [10] [%] | pest or weed control at 1000 g/ha (Solanum nigrum (SOLNI) [11]) [%] | pest or weed control at 1000 g/ha [12] [%]
1 | O=C(O)c1nc(-c2ccc(Cl)c(F)c2)nc2c1ccn2Cc1ccccc1[N+](=O)[O-] [Compound 8-17, 4-Carboxy-2-(4-chloro-3-fluorophenyl)-7-(2-nitropheny-methyl)-7H-pyrrolo[2,3-d]pyrimidine] | 20 | 0 | 0 | 50 | 50 | 0 | 0 | 0 | 0 | 0 | 0 | 0
2 | CCCCCCCCOC(=O)c1nc(-c2ccc(Cl)c(OC)c2F)nc2[nH]cc(C)c12 [Compound 1-77, 2-(4-Chloro-2-fluoro-3-methoxyphenyl)-5-methyl-4-(n-octyloxycarbonyl)-7H-pyrrolo[2,3-d]pyrimidine] | 10 | 10 | 0 | 40 | 70 | 0 | 0 | 0 | 10 | 0 | 10 | 0
3 | O=C(O)c1nc(Cl)nc2[nH]ccc12 [Compound 1-121, 4-carboxy-2-chloro-7H-pyrrolo[2,3-d]pyrimidine] | 0 | 0 | 0 | 0 | 10 | 0 | 0 | 0 | 0 | 0 | 0 | 0
4 | COc1c(Cl)ccc(-c2nc(C(=O)O)c3cc(C)n(CC4CC4)c3n2)c1F [Compound 5-65, 4-Carboxy-2-(4-chloro-2-fluoro-3-methoxyphenyl)-7-cyclopropymethyl-6-methyl-7H-pyrrolo[2,3-d]pyrimidine] | 10 | 20 | 0 | 10 | 20 | 0 | 0 | 0 | 0 | 0 | 0 | 0
5 | CCCCCC(C)OC(=O)c1nc(-c2ccc(Cl)c(OC)c2F)nc2[nH]cc(C)c12 (stereo not drawn) [Compound 1-79, 2-(4-Chloro-2-fluoro-3-methoxyphenyl)-4-(hept-2-yloxycarbonyl)-5-methyl-7H-pyrrolo[2,3-d]pyrimidine] | 10 | 0 | 0 | 20 | 10 | 0 | 0 | 0 | 0 | 0 | 0 | 0
6 | COc1c(Cl)ccc(-c2nc(C(=O)O)c3c(C)cn(Cc4ccc(C(F)(F)F)o4)c3n2)c1F [Compound 12-63, 4-Carboxy-2-(4-chloro-2-fluoro-3-methoxyphenyl)-7-(5-trifluoromethyl-furan-2-yl-methyl)-5-methyl-7H-pyrrolo[2,3-d]pyrimidine] | 30 | 0 | 0 | 50 | 70 | 0 | 60 | 0 | 20 | 10 | 0 | 0
